Data as given in US20120107835A1, “METHOD FOR DETECTING BETA-AMYLOID USING AMINO ACID DIMERS” (E[…] TELECOMM[…] INSTITUTE, priority 2010, published 2012).
No end group written: not given here. *: point of attachment. Biotin = O=C1N[C@H]2[C@H](CS[C@H]2CCCCC(=O)*)N1

The substances below were run on causative β-amyloid (Aβ42) (assay: Sandwich ELISA detection of β-amyloid using biotinylated amino acid dimers instead of secondary antibody (absorbance at 450 nm)). Conditions: Aβ40 vs Aβ42, dimer 100 μM, FIG. 2.
Type: binding
Protocol: Detection of β-amyloid was carried out using the biotinylated amino acid dimers prepared in Example 1, as follows.
Normal β-amyloid (Aβ40) and causative β-amyloid (Aβ42) were obtained from rPeptide (at Bogart, Ga., USA), and monoclonal antibodies specific for the β-amyloids(primary antibodies) were obtained from Covance (France). Each of the primary antibodies was mixed with sodium carbonate (pH 9.2) and the solution was added to a 96-well microplate for coating the wells (high-affinity F series, available from
NUNC, and then the microplate was washed with PBS or distilled water.
Meanwhile, each β-amyloid was dissolved in a sodium carbonate buffer (pH 9.4, Pierce) to a concentration of 1.0 mg/mL. For dilution, 100 μL of the β-amyloid solution was mixed with 9,900 μL of PBS. Each 200 μL of the resulting β-amyloid solution was dispensed into the wells of the 96-well microplate, and incubated for 4-hr at a room temperature so that β-amyloid binds to the primary antibody. Then, the plate was washed five times with PBS buffer (Pierce, at Rockford, Ill., USA), and 100 μL of the biotinylated amino acid dimer solution (amino acid dimer, dissolved in PBS to a concentration of 100 μM) was added to allow reaction for 1 hr. Each well was washed five times with PBS buffer, and 200 μL of streptavidin-HRP solution (diluted by 1:10,000, Pierce, at Rockford, Ill., USA) was added to allow reaction over 1 hr. After the reaction was completed, the plate was washed three times with PBS buffer, 100 μL of TMB substrate solution (KPL, USA) was added to allow reaction for 10-minute under a dark condition. Then, 50 μL of 15% hydrochloric acid was added to stop the reaction, and the absorbance of the reaction mixture at 450 nm was measured using a microplate reader (Bio-RAD, iMark).

**Q.** How did the “difference of absorbance between Aβ40 and Aβ42” value (from here on “difference”) turn out when Biotin-Arg-Leu [Dimer 5] was run?
**A.** very significant

**Q.** How did the “difference” value turn out when Biotin-Cys-Ser [Dimer 13] was run?
**A.** very significant

**Q.** Which “difference” value does the source give for Biotin-Arg-Ile [Dimer 3] here?
**A.** very significant

**Q.** How did the “difference” value turn out when Biotin-Ala-Arg [Dimer 1] was run?
**A.** very significant
